Source: the supplement of paper PMC10883282
± gives the standard deviation of the averaged measurements.

Test system: VA-ES-BJ
Assay: relative viability vs DMSO control (72 h) (fraction); higher = more viable cells
Method in brief: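 Percent growth from ATPLite readings, averaged over up to triplicate wells, was used as relative viability. Sarcoma cell lines were seeded into 384-well plates for 80–90% confluence, dosed after 24 h, and kept 72 h at 37 °C, 5% CO2. Data were rescaled to a range where 1 is full and 0 is none.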

| SMILES | relative viability (0.00017 µM) | relative viability (0.00051 µM) | relative viability (0.00152 µM) | relative viability (0.00457 µM) | relative viability (0.01372 µM) | relative viability (0.04115 µM) | relative viability (0.1235 µM) | relative viability (0.3704 µM) | relative viability (1.111 µM) | relative viability (3.333 µM) | relative viability (10 µM) | relative viability (2 pM) | relative viability (5 pM) | relative viability (15 pM) | relative viability (50 pM) | relative viability (0.00014 µM) | relative viability (0.00041 µM) | relative viability (0.0012 µM) | relative viability (0.0037 µM) | relative viability (0.011 µM) | relative viability (200 fM) | relative viability (600 fM) |
| --- | --- | --- | --- | --- | --- | --- | --- | --- | --- | --- | --- | --- | --- | --- | --- | --- | --- | --- | --- | --- | --- | --- |
| CC(C)NC(=O)C1CCC(n2c(NC(=O)c3ccc(F)cc3)nc3ccc(CN4CCC(C(C)(C)O)CC4)cc32)CC1 (stereo not drawn) [Belizatinib] | 1.05 ± 0.04 | 1.07 ± 0.059 | 1.05 ± 0.064 | 1.04 ± 0.018 | 1.08 ± 0.022 | 1.06 ± 0.046 | 1 ± 0.017 | 0.926 ± 0.014 | 0.658 ± 0.012 | 0.359 ± 0.012 | 0.164 ± 0.0087 |  |  |  |  |  |  |  |  |  |  |  |
| C=CC(=O)N1CCC[C@@H](n2nc(-c3ccc(Oc4ccccc4)cc3)c3c(N)ncnc32)C1 [Ibrutinib] | 1.09 ± 0.046 | 1.08 ± 0.035 | 1.08 ± 0.089 | 1.06 ± 0.026 | 1.08 ± 0.05 | 1.09 ± 0.044 | 1.07 ± 0.068 | 1.07 ± 0.092 | 1.13 ± 0.056 | 1.1 ± 0.036 | 0.989 ± 0.013 |  |  |  |  |  |  |  |  |  |  |  |
| O=C(Cc1ccc(-c2ccc(OCCN3CCOCC3)cc2)cn1)NCc1ccccc1 [KX2-391] | 1.09 ± 0.045 | 1.06 ± 0.043 | 1.06 ± 0.021 | 1.05 ± 0.044 | 0.96 ± 0.032 | 0.584 ± 0.026 | 0.385 ± 0.021 | 0.368 ± 0.021 | 0.314 ± 0.015 | 0.29 ± 0.017 | 0.309 ± 0.018 |  |  |  |  |  |  |  |  |  |  |  |
| CC(=O)Nc1cccc(-n2c(=O)n(C3CC3)c(=O)c3c(Nc4ccc(I)cc4F)n(C)c(=O)c(C)c32)c1 [Trametinib] | 1.08 ± 0.043 | 1.04 ± 0.026 | 1.02 ± 0.034 | 0.961 ± 0.038 | 0.871 ± 0.028 | 0.811 ± 0.032 | 0.738 ± 0.029 | 0.656 ± 0.022 | 0.628 ± 0.018 | 0.604 ± 0.019 | 0.572 ± 0.016 |  |  |  |  |  |  |  |  |  |  |  |
| COc1cc2nccc(Oc3ccc(NC(=O)Nc4cc(C)on4)c(Cl)c3)c2cc1OC [Tivozanib] | 1.04 ± 0.022 | 1.07 ± 0.017 | 1.05 ± 0.019 | 1.05 ± 0.025 | 1.05 ± 0.026 | 1.05 ± 0.028 | 1.1 ± 0.04 | 1.14 ± 0.048 | 1.16 ± 0.1 | 1.16 ± 0.12 | 0.812 ± 0.065 |  |  |  |  |  |  |  |  |  |  |  |
| COc1cc2c(cc1O)CCN[C@]21CS[C@@H]2c3c(OC(C)=O)c(C)c4c(c3[C@H](COC1=O)N1[C@@H]2[C@H]2c3c(cc(C)c(OC)c3O)C[C@@H]([C@@H]1O)N2C)OCO4 [Trabectedin] |  |  |  |  |  |  |  |  |  |  |  | 1.096 ± 0.0079 | 1.09 ± 0.014 | 1.07 ± 0.029 | 1.01 ± 0.046 | 0.683 ± 0.012 | 0.389 ± 0.1 | 0.239 ± 0.087 | 0.183 ± 0.014 | 0.203 ± 0.018 | 1.07 ± 0.024 | 1.08 ± 0.032 |
| CNC(=O)c1cc(Oc2ccc(NC(=O)Nc3ccc(Cl)c(C(F)(F)F)c3)c(F)c2)ccn1 [Regorafenib] | 1.13 ± 0.018 | 1.15 ± 0.032 | 1.1 ± 0.019 | 1.083 ± 0.0058 | 1.11 ± 0.035 | 1.08 ± 0.023 | 1.18 ± 0.048 | 1.19 ± 0.08 | 1.21 ± 0.072 | 1.24 ± 0.12 | 0.684 ± 0.048 |  |  |  |  |  |  |  |  |  |  |  |
| C[C@@H]1CCN(C(=O)CC#N)C[C@@H]1N(C)c1ncnc2[nH]ccc12 [Tofacitinib] | 1.052 ± 0.0034 | 1.07 ± 0.014 | 1.02 ± 0.037 | 1.06 ± 0.039 | 1.02 ± 0.035 | 1.02 ± 0.026 | 1.01 ± 0.019 | 1.01 ± 0.017 | 1 ± 0.036 | 0.9697 ± 0.0069 | 0.931 ± 0.018 |  |  |  |  |  |  |  |  |  |  |  |
| COc1cc2c(Oc3ccc4[nH]c(C)cc4c3F)ncnc2cc1OCCCN1CCCC1 [Cediranib] | 1.05 ± 0.045 | 1.03 ± 0.055 | 1.04 ± 0.048 | 1.06 ± 0.038 | 1.04 ± 0.029 | 1.07 ± 0.067 | 1.09 ± 0.068 | 1.13 ± 0.065 | 1.15 ± 0.051 | 1.15 ± 0.022 | 1.13 ± 0.01 |  |  |  |  |  |  |  |  |  |  |  |
| CC[C@H](Nc1ncnc2[nH]cnc12)c1nc2cccc(F)c2c(=O)n1-c1ccccc1 [Idelalisib] | 1.12 ± 0.01 | 1.12 ± 0.052 | 1.09 ± 0.015 | 1.09 ± 0.071 | 1.06 ± 0.03 | 1.07 ± 0.041 | 1.05 ± 0.026 | 1.03 ± 0.053 | 0.931 ± 0.041 | 0.872 ± 0.035 | 0.705 ± 0.038 |  |  |  |  |  |  |  |  |  |  |  |
| Cc1cc(Nc2ncnc3ccc(NC4=NC(C)(C)CO4)cc23)ccc1Oc1ccn2ncnc2c1 [Tucatinib] | 1.09 ± 0.036 | 1.058 ± 0.0029 | 1.07 ± 0.032 | 1.04 ± 0.015 | 1.02 ± 0.02 | 1.03 ± 0.043 | 1.02 ± 0.089 | 1.01 ± 0.058 | 1.03 ± 0.023 | 1.03 ± 0.049 | 1.01 ± 0.023 |  |  |  |  |  |  |  |  |  |  |  |
| Cn1cc(-c2cc3c(N4CCN(c5ncc([C@@](C)(N)c6ccc(F)cc6)cn5)CC4)ncnn3c2)cn1 [Avapritinib] | 1.02 ± 0.013 | 1.01 ± 0.025 | 1 ± 0.013 | 1.01 ± 0.03 | 0.998 ± 0.057 | 0.993 ± 0.023 | 0.971 ± 0.039 | 0.98 ± 0.031 | 0.975 ± 0.011 | 0.956 ± 0.034 | 0.979 ± 0.028 |  |  |  |  |  |  |  |  |  |  |  |
| CC(C)(C)c1cc(NC(=O)Nc2ccc(-c3cn4c(n3)sc3cc(OCCN5CCOCC5)ccc34)cc2)no1 [Quizartinib] | 1.06 ± 0.028 | 1.06 ± 0.038 | 1.05 ± 0.019 | 1.06 ± 0.032 | 1.05 ± 0.026 | 1.05 ± 0.038 | 1.02 ± 0.059 | 1.04 ± 0.03 | 1.02 ± 0.045 | 0.947 ± 0.022 | 0.831 ± 0.032 |  |  |  |  |  |  |  |  |  |  |  |
| O=C(Nc1cnn2ccc(N3CCC[C@@H]3c3cc(F)ccc3F)nc12)N1CC[C@H](O)C1 [Larotrectinib] | 1.05 ± 0.058 | 1.07 ± 0.037 | 1.04 ± 0.04 | 1.06 ± 0.044 | 1.04 ± 0.017 | 1.02 ± 0.046 | 1 ± 0.04 | 0.99 ± 0.022 | 1.02 ± 0.036 | 0.989 ± 0.043 | 0.994 ± 0.043 |  |  |  |  |  |  |  |  |  |  |  |
| Cc1nc(-c2cn3c(n2)-c2ccc(-c4cnn(C(C)(C)C(N)=O)c4)cc2OCC3)n(C(C)C)n1 [Taselisib] | 1.01 ± 0.045 | 1.01 ± 0.03 | 1.02 ± 0.071 | 0.971 ± 0.048 | 0.943 ± 0.038 | 0.844 ± 0.039 | 0.75 ± 0.06 | 0.616 ± 0.056 | 0.379 ± 0.013 | 0.293 ± 0.028 | 0.144 ± 0.15 |  |  |  |  |  |  |  |  |  |  |  |
| Cc1nc(NC(=O)N2CCC[C@H]2C(N)=O)sc1-c1ccnc(C(C)(C)C(F)(F)F)c1 [Alpelisib] | 1.062 ± 0.0069 | 1.03 ± 0.048 | 1.03 ± 0.022 | 0.992 ± 0.054 | 0.981 ± 0.04 | 0.94 ± 0.045 | 0.924 ± 0.045 | 0.833 ± 0.019 | 0.741 ± 0.021 | 0.61 ± 0.01 | 0.378 ± 0.011 |  |  |  |  |  |  |  |  |  |  |  |
| Cn1cnc2c(F)c(Nc3ccc(Br)cc3F)c(C(=O)NOCCO)cc21 [Binimetinib] | 1.06 ± 0.011 | 1.09 ± 0.032 | 1.07 ± 0.037 | 1.02 ± 0.028 | 1.02 ± 0.044 | 0.966 ± 0.027 | 0.946 ± 0.071 | 0.921 ± 0.069 | 0.879 ± 0.046 | 0.794 ± 0.041 | 0.689 ± 0.058 |  |  |  |  |  |  |  |  |  |  |  |
| CCc1cc2c(cc1N1CCC(N3CCOCC3)CC1)C(C)(C)c1[nH]c3cc(C#N)ccc3c1C2=O [Alectinib] | 1.03 ± 0.047 | 1.07 ± 0.042 | 1.04 ± 0.057 | 1.04 ± 0.027 | 1.02 ± 0.041 | 1.06 ± 0.048 | 1.04 ± 0.0046 | 0.891 ± 0.27 | 0.912 ± 0.26 | 0.941 ± 0.24 | 0.905 ± 0.25 |  |  |  |  |  |  |  |  |  |  |  |
